Source: paper PMC2662379 (Biochemistry, 2008)

How the values were obtained:
[1] = molecular target: alkaline phosphatase (AP) (Escherichia coli, UniProt P00634, R188S); test: steady-state hydrolysis kinetics; assay type: biochemical
[2] = molecular target: NPP (Xanthomonas axonopodis nucleotide phosphodiesterase/pyrophosphatase) (Xanthomonas citri, UniProt A0A0U5FM15); test: inhibition of MepNPP hydrolysis, absorbance of 4-nitrophenolate at […] nm; assay type: biochemical

Chain of alkaline phosphatase (AP) (P00634 23-471 R188S): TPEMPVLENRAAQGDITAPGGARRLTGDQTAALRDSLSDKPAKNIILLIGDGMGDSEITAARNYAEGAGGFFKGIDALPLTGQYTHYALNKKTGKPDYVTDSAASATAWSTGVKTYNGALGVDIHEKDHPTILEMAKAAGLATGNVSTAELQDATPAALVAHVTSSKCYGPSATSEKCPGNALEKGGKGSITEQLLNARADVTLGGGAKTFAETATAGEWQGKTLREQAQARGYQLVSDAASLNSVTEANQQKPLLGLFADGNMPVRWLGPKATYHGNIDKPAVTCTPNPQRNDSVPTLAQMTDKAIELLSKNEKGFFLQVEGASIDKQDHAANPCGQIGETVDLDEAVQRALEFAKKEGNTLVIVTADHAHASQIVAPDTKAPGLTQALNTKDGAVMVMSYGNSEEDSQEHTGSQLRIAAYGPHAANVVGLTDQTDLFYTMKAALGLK

Compound	kcat/KM [1] [M⁻¹ s⁻¹]	Ki [2] [µM]
COP(O)(=S)Oc1ccc([N+](=O)[O-])cc1 (racemic) [MepNPPS, methyl p-nitrophenyl phosphorothioate]	0.0011	
Nc1ncnc2c1ncn2[C@@H]1O[C@H](COP(=O)(O)O)[C@@H](O)[C@H]1O [AMP, adenosine monophosphate]		318 ± 24
